# Assay results: paper PMC5468247, “Development of a selective agonist for relaxin family peptide receptor 3” (Scientific Reports, 2017)
# Tests used:
# human RXFP4 [1] = biological target: T1, human RXFP4 (Homo sapiens, UniProt Q8TDU9); test: Receptor binding assay, NanoLuc-conjugated R3/I5 tracer competition; conditions: for binding potency towards RXFP4, in words: compared with R3/I5
# T1 construct: expressed in transfected cells; host or cells: HEK293T
# Procedure: (§1) Specific binding data are expressed as means ± SE (n = 3) and fitted to sigmoidal curves using SigmaPlot 10.0 software.
# (§2) Briefly, HEK293T cells were transiently transfected with an expression construct of human RXFP3 or human RXFP4. On the next day, transfected cells were trypsinised, seeded into 96-well plates, and continuously cultured for 24–36 h to ~100% confluence. […] After incubation at 21 °C for 2 h, binding solution was removed and cells were washed twice with ice-cold phosphate-buffered saline (200 μl/well for each wash). Thereafter, cells were lysed by lysis solution (100 μl/well, Promega, Madison, WI, USA) and cell lysates were transferred to a white opaque 96-well plate (50 μl/well). After mixing with freshly diluted substrate (50 μl/well), bioluminescence was immediately measured on a SpectraMax M5 plate reader (Molecular Devices, Sunnyvale, CA, USA) in luminescence mode. […] The calculated specific binding data were expressed as means ± standard error (SE; n = 3) and fitted to sigmoidal curves using SigmaPlot 10.0 software.
# human RXFP3 [2] = biological target: T2, human RXFP3 (Homo sapiens, UniProt Q9NSD7); test: as above; conditions: compared with R3/I5
# T2 construct: expressed in transfected cells; host or cells: HEK293T
# T2 sequence (Q9NSD7 1-469): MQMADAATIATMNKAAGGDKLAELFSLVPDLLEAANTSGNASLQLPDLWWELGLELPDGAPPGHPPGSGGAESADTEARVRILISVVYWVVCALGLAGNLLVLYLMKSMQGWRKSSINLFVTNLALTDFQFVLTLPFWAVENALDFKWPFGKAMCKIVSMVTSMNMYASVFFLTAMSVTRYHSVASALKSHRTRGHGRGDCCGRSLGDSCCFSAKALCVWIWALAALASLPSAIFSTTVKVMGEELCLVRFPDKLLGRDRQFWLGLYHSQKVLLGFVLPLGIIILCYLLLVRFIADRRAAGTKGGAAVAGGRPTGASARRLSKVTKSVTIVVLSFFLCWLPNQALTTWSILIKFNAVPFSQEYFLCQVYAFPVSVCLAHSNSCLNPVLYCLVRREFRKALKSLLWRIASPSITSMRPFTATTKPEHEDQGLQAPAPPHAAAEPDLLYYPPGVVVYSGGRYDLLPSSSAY
# Procedure: as §1, §2
# human RXFP4 [3] = biological target: T1, human RXFP4; test: Receptor activation assay, CRE-controlled NanoLuc reporter; type: cell-based; conditions: for fold lower activation potency towards RXFP4 compared with R3/I5: relative to R3/I5; for activation potency towards RXFP4, in words: compared with R3/I5
# Description: (§3) HEK293T cells transiently cotransfected with a CRE-controlled NanoLuc reporter vector and the expression construct of human RXFP3 or human RXFP4 were used for activation assays. The measured bioluminescence data are expressed as means ± SE (n = 3) and fitted to sigmoidal or linear curves using SigmaPlot 10.0.
# (§4) Briefly, HEK293T cells were transiently cotransfected with the NanoLuc reporter vector pNL1.2/CRE and the expression construct of human RXFP3 or human RXFP4. On the next day, transfected cells were trypsinised, seeded into 96-well plates, and continuously cultured for 24–36 h to ~90% confluence. To initiate activation assays, medium was removed and activation solution (serum-free DMEM medium plus 1% bovine serum albumin) containing 1.0 μM of forskolin and various concentrations of peptide was added (100 μl/well). After continuous culturing at 37 °C for 4 h, activation solution was removed and cells were lysed with lysis solution (100 μl/well, Promega). Cell lysates were then transferred to a white opaque 96-well plate (50 μl/well), mixed with freshly diluted substrate (50 μl/well), and bioluminescence was immediately measured on a SpectraMax M5 plate reader (Molecular Devices) in luminescence mode. The measured data were expressed as means ± SE (n = 3) and fitted to sigmoidal or linear curves using SigmaPlot 10.0 software.
# human RXFP3 [4] = biological target: T2, human RXFP3; test: as above; type: cell-based; conditions: for activation potency towards RXFP3, in words: CRE-NanoLuc reporter, human RXFP3, compared with R3/I5
# Description: as §3, §4
# T1 sequence (Q8TDU9 whole entry): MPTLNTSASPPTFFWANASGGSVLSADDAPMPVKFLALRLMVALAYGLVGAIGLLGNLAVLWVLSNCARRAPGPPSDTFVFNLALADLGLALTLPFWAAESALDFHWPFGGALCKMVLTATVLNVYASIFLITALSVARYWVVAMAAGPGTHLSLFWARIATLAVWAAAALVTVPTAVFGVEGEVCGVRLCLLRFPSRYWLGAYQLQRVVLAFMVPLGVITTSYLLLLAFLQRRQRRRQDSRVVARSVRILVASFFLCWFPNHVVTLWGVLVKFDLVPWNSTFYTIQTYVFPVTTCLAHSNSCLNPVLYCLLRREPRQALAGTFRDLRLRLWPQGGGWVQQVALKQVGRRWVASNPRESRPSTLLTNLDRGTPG
SMILES,"binding potency towards RXFP4, in words (human RXFP4 [1])","binding potency towards RXFP3, in words (human RXFP3 [2])",fold lower activation potency towards RXFP4 compared with R3/I5 (human RXFP4 [3]),"activation potency towards RXFP3, in words (human RXFP3 [4])","activation potency towards RXFP4, in words (human RXFP4 [3])",fold lower binding potency towards RXFP4 compared with R3/I5 (human RXFP4 [1]; relative to R3/I5) [fold],"fold higher activation potency towards RXFP3 than towards RXFP4 (human RXFP3 [4]; selectivity RXFP3 over RXFP4, from activation assays) [fold]"
CC[C@H](C)[C@@H]1NC(=O)[C@H](Cc2ccccc2)NC(=O)[C@H](CCC(=O)O)NC(=O)[C@H](CCCNC(=N)N)NC(=O)CNC(=O)[C@@H](NC(=O)[C@H](CC(C)C)NC(=O)[C@H](CCCNC(=N)N)NC(=O)[C@@H](NC(=O)CNC(=O)[C@H](Cc2ccc(O)cc2)NC(=O)[C@@H]2CCCN2C(=O)[C@H](C)NC(=O)[C@H](C)NC(=O)[C@H](CCCNC(=N)N)NC(=O)[C@@H]2CCC(=O)N2)C(C)C)CSSC[C@@H]2NC(=O)[C@@H](NC(=O)[C@H](CC(C)C)NC(=O)[C@@H](NC(=O)[C@H](CCC(N)=O)NC(=O)[C@H](CC(C)C)NC(=O)[C@H](CC(=O)O)NC(=O)[C@H](CCC(N)=O)NC(=O)[C@H](CCCNC(=N)N)NC(=O)[C@H](CO)NC(=O)[C@H](CCCNC(=N)N)NC(=O)[C@H](CCCNC(=N)N)NC(=O)[C@H](CO)NC(=O)[C@@H](N)CCCNC(=N)N)[C@@H](C)O)CSSC[C@H](NC(=O)CNC(=O)[C@H](CC(=O)O)NC(=O)[C@H]([C@@H](C)O)NC2=O)C(=O)N[C@@H](CO)C(=O)N[C@@H](CCSC)C(=O)N[C@@H]([C@@H](C)O)C(=O)N[C@@H](CC(=O)O)C(=O)N[C@@H](CC(C)C)C(=O)N[C@@H](CO)C(=O)N[C@@H](C)C(=O)N[C@@H](CC(C)C)C(=O)N[C@H](C(=O)O)CSSC[C@@H](C(=O)N[C@@H](CO)C(=O)NCC(=O)N[C@@H](CO)C(=O)N[C@@H](CCCNC(=N)N)C(=O)N[C@@H](Cc2c[nH]c3ccccc23)C(=O)O)NC(=O)[C@H]([C@@H](C)O)NC(=O)[C@H](Cc2ccccc2)NC(=O)[C@H]([C@@H](C)CC)NC(=O)[C@H](C(C)C)NC(=O)[C@H](C)NC(=O)[C@H](CCCNC(=N)N)NC1=O [[G(B23)S]R3/I5],retained high binding potency,retained considerable binding potency,~ 100 fold,lost all activation potency,,,
CC[C@H](C)[C@@H]1NC(=O)[C@H](Cc2ccccc2)NC(=O)[C@H](CCC(=O)O)NC(=O)[C@H](CCCNC(=N)N)NC(=O)CNC(=O)[C@@H](NC(=O)[C@H](CC(C)C)NC(=O)[C@H](CCCNC(=N)N)NC(=O)[C@@H](NC(=O)CNC(=O)[C@H](Cc2ccc(O)cc2)NC(=O)[C@@H]2CCCN2C(=O)[C@H](C)NC(=O)[C@H](C)NC(=O)[C@H](CCCNC(=N)N)NC(=O)[C@@H]2CCC(=O)N2)C(C)C)CSSC[C@@H]2NC(=O)[C@@H](NC(=O)[C@H](CC(C)C)NC(=O)[C@@H](NC(=O)[C@H](CCC(N)=O)NC(=O)[C@H](CC(C)C)NC(=O)[C@H](CC(=O)O)NC(=O)[C@H](CCC(N)=O)NC(=O)[C@H](CCCNC(=N)N)NC(=O)[C@H](CO)NC(=O)[C@H](CCCNC(=N)N)NC(=O)[C@H](CCCNC(=N)N)NC(=O)[C@H](CO)NC(=O)[C@@H](N)CCCNC(=N)N)[C@@H](C)O)CSSC[C@H](NC(=O)CNC(=O)[C@H](CC(=O)O)NC(=O)[C@H]([C@@H](C)O)NC2=O)C(=O)N[C@@H](CO)C(=O)N[C@@H](CCSC)C(=O)N[C@@H]([C@@H](C)O)C(=O)N[C@@H](CC(=O)O)C(=O)N[C@@H](CC(C)C)C(=O)N[C@@H](CO)C(=O)N[C@@H](C)C(=O)N[C@@H](CC(C)C)C(=O)N[C@H](C(=O)O)CSSC[C@@H](C(=O)NCC(=O)N[C@@H](C)C(=O)N[C@@H](CO)C(=O)N[C@@H](CCCNC(=N)N)C(=O)N[C@@H](Cc2c[nH]c3ccccc23)C(=O)O)NC(=O)[C@H]([C@@H](C)O)NC(=O)[C@H](Cc2ccccc2)NC(=O)[C@H]([C@@H](C)CC)NC(=O)[C@H](C(C)C)NC(=O)[C@H](C)NC(=O)[C@H](CCCNC(=N)N)NC1=O [[G(B24)A]R3/I5],retained full binding potency,retained full binding potency,,retained full activation potency,retained full activation potency,,
CC[C@H](C)[C@@H]1NC(=O)[C@H](Cc2ccccc2)NC(=O)[C@H](CCC(=O)O)NC(=O)[C@H](CCCNC(=N)N)NC(=O)CNC(=O)[C@@H](NC(=O)[C@H](CC(C)C)NC(=O)[C@H](CCCNC(=N)N)NC(=O)[C@@H](NC(=O)CNC(=O)[C@H](Cc2ccc(O)cc2)NC(=O)[C@@H]2CCCN2C(=O)[C@H](C)NC(=O)[C@H](C)NC(=O)[C@H](CCCNC(=N)N)NC(=O)[C@@H]2CCC(=O)N2)C(C)C)CSSC[C@@H]2NC(=O)[C@@H](NC(=O)[C@H](CC(C)C)NC(=O)[C@@H](NC(=O)[C@H](CCC(N)=O)NC(=O)[C@H](CC(C)C)NC(=O)[C@H](CC(=O)O)NC(=O)[C@H](CCC(N)=O)NC(=O)[C@H](CCCNC(=N)N)NC(=O)[C@H](CO)NC(=O)[C@H](CCCNC(=N)N)NC(=O)[C@H](CCCNC(=N)N)NC(=O)[C@H](CO)NC(=O)[C@@H](N)CCCNC(=N)N)[C@@H](C)O)CSSC[C@H](NC(=O)CNC(=O)[C@H](CC(=O)O)NC(=O)[C@H]([C@@H](C)O)NC2=O)C(=O)N[C@@H](CO)C(=O)N[C@@H](CCSC)C(=O)N[C@@H]([C@@H](C)O)C(=O)N[C@@H](CC(=O)O)C(=O)N[C@@H](CC(C)C)C(=O)N[C@@H](CO)C(=O)N[C@@H](C)C(=O)N[C@@H](CC(C)C)C(=O)N[C@H](C(=O)O)CSSC[C@@H](C(=O)NCC(=O)N[C@@H](CCC(=O)O)C(=O)N[C@@H](CO)C(=O)N[C@@H](CCCNC(=N)N)C(=O)N[C@@H](Cc2c[nH]c3ccccc23)C(=O)O)NC(=O)[C@H]([C@@H](C)O)NC(=O)[C@H](Cc2ccccc2)NC(=O)[C@H]([C@@H](C)CC)NC(=O)[C@H](C(C)C)NC(=O)[C@H](C)NC(=O)[C@H](CCCNC(=N)N)NC1=O [[G(B24)E]R3/I5],retained low binding potency,retained low binding potency,,lost all activation potency,lost all activation potency,,
CC[C@H](C)[C@@H]1NC(=O)[C@H](Cc2ccccc2)NC(=O)[C@H](CCC(=O)O)NC(=O)[C@H](CCCNC(=N)N)NC(=O)CNC(=O)[C@@H](NC(=O)[C@H](CC(C)C)NC(=O)[C@H](CCCNC(=N)N)NC(=O)[C@@H](NC(=O)CNC(=O)[C@H](Cc2ccc(O)cc2)NC(=O)[C@@H]2CCCN2C(=O)[C@H](C)NC(=O)[C@H](C)NC(=O)[C@H](CCCNC(=N)N)NC(=O)[C@@H]2CCC(=O)N2)C(C)C)CSSC[C@@H]2NC(=O)[C@@H](NC(=O)[C@H](CC(C)C)NC(=O)[C@@H](NC(=O)[C@H](CCC(N)=O)NC(=O)[C@H](CC(C)C)NC(=O)[C@H](CC(=O)O)NC(=O)[C@H](CCC(N)=O)NC(=O)[C@H](CCCNC(=N)N)NC(=O)[C@H](CO)NC(=O)[C@H](CCCNC(=N)N)NC(=O)[C@H](CCCNC(=N)N)NC(=O)[C@H](CO)NC(=O)[C@@H](N)CCCNC(=N)N)[C@@H](C)O)CSSC[C@H](NC(=O)CNC(=O)[C@H](CC(=O)O)NC(=O)[C@H]([C@@H](C)O)NC2=O)C(=O)N[C@@H](CO)C(=O)N[C@@H](CCSC)C(=O)N[C@@H]([C@@H](C)O)C(=O)N[C@@H](CC(=O)O)C(=O)N[C@@H](CC(C)C)C(=O)N[C@@H](CO)C(=O)N[C@@H](C)C(=O)N[C@@H](CC(C)C)C(=O)N[C@H](C(=O)O)CSSC[C@@H](C(=O)NCC(=O)N[C@@H](CO)C(=O)N[C@@H](CO)C(=O)N[C@@H](CCCNC(=N)N)C(=O)N[C@@H](Cc2c[nH]c3ccccc23)C(=O)O)NC(=O)[C@H]([C@@H](C)O)NC(=O)[C@H](Cc2ccccc2)NC(=O)[C@H]([C@@H](C)CC)NC(=O)[C@H](C(C)C)NC(=O)[C@H](C)NC(=O)[C@H](CCCNC(=N)N)NC1=O [[G(B24)S]R3/I5],,retained full activation and binding potencies,20 fold,retained full activation and binding potencies,,2,20
